Results published in ChEMBL document CHEMBL1149159, “Structure-activity relationship of purine ribonucleosides for inhibition of hepatitis C virus RNA-dependent RNA polymerase” (J Med Chem, 2004).

target: RNA-directed RNA polymerase (Hepacivirus hominis, UniProt O39930); test: Inhibition HCV NS5B-mediated RNA synthesis; format: functional
Sequence (O39930 whole entry): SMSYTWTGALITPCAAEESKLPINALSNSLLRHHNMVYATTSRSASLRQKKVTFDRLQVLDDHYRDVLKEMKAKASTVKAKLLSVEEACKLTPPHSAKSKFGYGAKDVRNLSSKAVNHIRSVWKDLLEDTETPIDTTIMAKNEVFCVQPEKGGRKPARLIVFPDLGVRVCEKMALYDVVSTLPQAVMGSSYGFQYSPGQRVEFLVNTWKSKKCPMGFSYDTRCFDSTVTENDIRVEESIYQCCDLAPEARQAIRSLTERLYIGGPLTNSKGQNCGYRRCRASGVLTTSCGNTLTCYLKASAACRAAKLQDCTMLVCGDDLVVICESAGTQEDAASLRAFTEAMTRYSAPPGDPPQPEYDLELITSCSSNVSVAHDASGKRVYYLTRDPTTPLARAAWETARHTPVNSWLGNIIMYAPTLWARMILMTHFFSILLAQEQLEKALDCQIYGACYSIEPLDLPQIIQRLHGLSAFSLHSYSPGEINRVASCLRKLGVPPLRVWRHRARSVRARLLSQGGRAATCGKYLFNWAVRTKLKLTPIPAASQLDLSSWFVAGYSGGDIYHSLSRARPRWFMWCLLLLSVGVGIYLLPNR

| IC50 | SMILES |
| --- | --- |
| 2.6 µM | C[C@@]1(O)[C@H](O)[C@@H](CO)O[C@H]1n1cnc2c(N)nc(N)nc21 |
| 46 µM | C[C@@]1(O)[C@H](O)[C@@H](CO)O[C@H]1n1cnc2cnc(N)nc21 |
| 1.6 µM | CO[C@@H]1[C@H](O)[C@@H](CO)O[C@H]1n1cnc2c(=O)[nH]c(N)nc21 |
| 1.8 µM | Nc1nc2c(ncn2[C@@H]2O[C@H](CO)[C@@H](F)[C@H]2O)c(=O)[nH]1 |
| 28 µM | Nc1ncnc2c1ncn2[C@@H]1O[C@H](CO)[C@@H](F)[C@H]1O |
| 47 µM | CO[C@@H]1[C@H](O)[C@@H](CO)O[C@H]1n1cnc2c(N)ncnc21 |
| 0.6 µM | Nc1nc2c(ncn2[C@@H]2O[C@H](CO)C[C@H]2O)c(=O)[nH]1 |
| 4 µM | C[C@@]1(O)[C@H](O)[C@@H](CO)O[C@H]1n1cnc2c(=O)[nH]cnc21 |
| 20 µM | Nc1nc2c(ncn2[C@@H]2O[C@H](CO)C(O)[C@H]2O)c(=O)[nH]1 (single isomer, unassigned) |
| 0.13 µM | C[C@@]1(O)[C@H](O)[C@@H](CO)O[C@H]1n1cnc2c(=O)[nH]c(N)nc21 [2'-B-METHYL-GUANOSINE] |
| 22 µM | Nc1ncnc2c1ncn2[C@@H]1O[C@H](CO)C[C@H]1O [CORDYCEPIN] |
| 50 µM | Nc1ncnc2c1ncn2[C@@H]1O[C@H](CO)[C@@H](O)[C@@H]1O [VIDARABINE] |

| SMILES | IC50 |
| --- | --- |
| C[C@]1(O)[C@@H](CO)O[C@@H](n2cnc3c(N)ncnc32)[C@@H]1O | > 50 µM |
| CO[C@]1(C)[C@H](O)[C@@H](CO)O[C@H]1n1cnc2c(N)ncnc21 | > 50 µM |
| CC[C@@]1(O)[C@H](O)[C@@H](CO)O[C@H]1n1cnc2c(N)ncnc21 | > 50 µM |
| C[C@@]1(O)[C@@H](CO)O[C@@H](n2cnc3c(N)ncnc32)[C@@H]1O | > 50 µM |
| C[C@@]1(O)[C@H](O)[C@@H](CO)O[C@H]1n1cnc2c(N)ncnc21 | 1.9 µM |
| C[C@]1(O)[C@H](O)[C@@H](CO)O[C@H]1n1cnc2c(N)ncnc21 | > 50 µM |
| Nc1ncnc2c1ncn2[C@@H]1O[C@H](CO)[C@@H](O)[C@H]1F [2'-BETA-FLUORO-2',3'-DEOXYADENOSINE] | > 50 µM |
